In ChEMBL document CHEMBL5726510, “MK2 inhibitors and uses thereof” (2017) one finds IC50 data, which are given here for six molecules.

For the experiment, the target named is MAP kinase-activated protein kinase 2 (Homo sapiens, UniProt P49137). In words: Mass Spectrometry Assay: Compounds I-1 through I-50 of the invention were assayed in a mass spectrometric assay to measure their ability to covalently modify MK2 protein. The procedure for this assay follows. Intact MK2 protein (Invitrogen, Cat. No. PR5320A) was incubated for 60 minutes at room temperature with a 10-fold excess of test compound to protein. Aliquots of the resulting mixture (6 μL ….
MAP kinase-activated protein kinase 2, sequence (P49137 whole entry): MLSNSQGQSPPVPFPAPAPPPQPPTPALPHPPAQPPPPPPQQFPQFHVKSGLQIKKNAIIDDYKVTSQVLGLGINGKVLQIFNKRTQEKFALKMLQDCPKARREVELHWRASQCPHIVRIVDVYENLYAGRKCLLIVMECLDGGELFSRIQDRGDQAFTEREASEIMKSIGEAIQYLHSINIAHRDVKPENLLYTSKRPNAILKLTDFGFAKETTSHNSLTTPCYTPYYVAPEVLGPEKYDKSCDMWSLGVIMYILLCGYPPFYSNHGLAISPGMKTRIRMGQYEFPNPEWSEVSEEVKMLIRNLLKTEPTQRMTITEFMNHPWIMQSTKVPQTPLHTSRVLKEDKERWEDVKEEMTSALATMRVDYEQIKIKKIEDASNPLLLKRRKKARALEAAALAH
With `C[C@@H]1CNc2c(sc3ccc4nc(Nc5nc(Cl)ncc5C(=O)NC5COC5)ccc4c23)C(=O)N1`, the IC50 was below 100 nM.
Regarding `C[C@@H]1CNc2c(sc3ccc4nc(Oc5cc(CNC(C)(C)C)nc(Cl)n5)ccc4c23)C(=O)N1`, the IC50 is below 100 nM.
Regarding `C[C@@H]1CNc2c(sc3ccc4nc(Nc5nccc(Cl)n5)ccc4c23)C(=O)N1`, the IC50 is above 1000 nM.
To `CN(C)C[C@@H]1CNc2c(sc3ccc4nc(Nc5cc(F)ncn5)ccc4c23)C(=O)N1` belongs above 1000 nM; to `C[C@@H]1CNc2c(sc3ccc4nc(Nc5nc(Cl)ncc5C(=O)NC5CC5)ccc4c23)C(=O)N1`, below 100 nM; to `C[C@@H]1CNc2c(sc3ccc4nc(Nc5nc(Cl)ncc5C(=O)NC5CCN(C)CC5)ccc4c23)C(=O)N1`, below 100 nM.

In general, IC50 refers to the concentration that inhibits the measured activity by half.
